Test results reported in ChEMBL document CHEMBL1697723, “A predictive ligand-based Bayesian model for human drug-induced liver injury” (Drug Metab Dispos, 2010).
Starred links: 1 amine or outer side, 2 acyl side, 3 side chain; linkers in the order of their positions; H or OH if unused. Positions of bridges follow the written chain, without caps; N, C: chain ends. Non-standard residues stand in square brackets, D forms with d. Residues, ends and D or L forms follow the SMILES beside them. Chains are numbered I, II in the order given. Actinocin(9to1) = Cc1c2oc3c(C)ccc(C(=O)[*:1])c3nc-2c(C(=O)[*:2])c(N)c1=O; NMeV = CN[C@H](C(=O)O)C(C)C; Sar = CNCC(=O)O

System: Hepatotoxicity
Test: Human drug-induced liver injury (DILI) modelling dataset from Ekins et al
Details: not given

Row | Compound | Hepatotoxicity
1 | CC1=C(C(=O)O)N2C(=O)[C@@H](NC(=O)[C@H](N)c3ccc(O)cc3)[C@H]2SC1 [CEFADROXIL] | DILI positive (test set)
2 | O=c1[nH]cc(F)c(=O)[nH]1 [FLUOROURACIL] | DILI positive (test set)
3 | CO[C@@H]1[C@@H](OC(N)=O)[C@@H](O)[C@H](Oc2ccc3c(O)c(NC(=O)c4ccc(O)c(CC=C(C)C)c4)c(=O)oc3c2C)OC1(C)C [NOVOBIOCIN] | DILI positive (training set)
4 | O=C(O)c1cc(=O)c2c(OCC(O)COc3cccc4oc(C(=O)O)cc(=O)c34)cccc2o1 [CROMOLYN] | DILI negative (training set)
5 | Cn1c(=O)c2[nH]cnc2n(C)c1=O.O [THEOPHYLLINE] | DILI negative (test set)
6 | Nc1cc(-c2ccncc2)c[nH]c1=O [INAMRINONE] | DILI positive (training set)
7 | CN(Cc1cnc2nc(N)nc(N)c2n1)c1ccc(C(=O)N[C@@H](CCC(=O)O)C(=O)O)cc1 [METHOTREXATE] | DILI positive (training set)
8 | Cc1c2oc3c(C)ccc(C(=O)N[C@@H]4C(=O)N[C@H](C(C)C)C(=O)N5CCC[C@H]5C(=O)N(C)CC(=O)N(C)[C@@H](C(C)C)C(=O)O[C@@H]4C)c3nc-2c(C(=O)N[C@@H]2C(=O)N[C@H](C(C)C)C(=O)N3CCC[C@H]3C(=O)N(C)CC(=O)N(C)[C@@H](C(C)C)C(=O)O[C@@H]2C)c(N)c1=O [DACTINOMYCIN] (I: T[dV]P[Sar][NMeV] / II: T[dV]P[Sar][NMeV]; ester I:1-I:C, II:1-II:C; linker I:N-II:N via Actinocin(9to1)) | DILI positive (test set)
9 | N=C(N)NCCC[C@H](N)C(=O)O [ARGININE] | DILI negative (training set)
10 | AURANOFIN | DILI positive (test set)
11 | CC(C)(C)NC(=O)[C@@H]1CN(Cc2cccnc2)CCN1C[C@@H](O)C[C@@H](Cc1ccccc1)C(=O)N[C@H]1c2ccccc2C[C@H]1O.O=S(=O)(O)O [INDINAVIR SULFATE] | DILI negative (test set)
12 | ClCCCl [1,2-DICHLOROETHANE] | DILI positive (test set)
13 | CO[C@@]1(NC(=O)C(C(=O)[O-])c2ccc(O)cc2)C(=O)N2C(C(=O)[O-])=C(CSc3nnnn3C)CO[C@@H]21.[Na+].[Na+] (stereo partly drawn) [MOXALACTAM DISODIUM] | DILI negative (test set)
14 | CC1(C)[C@@H](OC(=O)CCC(=O)[O-])CC[C@]2(C)[C@H]3C(=O)C=C4[C@@H]5C[C@@](C)(C(=O)[O-])CC[C@]5(C)CC[C@@]4(C)[C@]3(C)CC[C@@H]12.[Na+].[Na+] [CARBENOXOLONE SODIUM] | DILI negative (training set)
15 | CCOC(=O)C1(c2ccccc2)CCN(CCc2ccc(N)cc2)CC1.Cl [ANILERIDINE HYDROCHLORIDE] | DILI negative (test set)
16 | CC(C)COCC(CN(Cc1ccccc1)c1ccccc1)N1CCCC1.Cl.O (stereo not drawn) [BEPRIDIL HYDROCHLORIDE] | DILI positive (training set)
17 | CC(=O)Oc1ccccc1C(=O)O [ASPIRIN] | DILI negative (training set)
18 | COC1=CC(=O)C[C@@H](C)[C@]12Oc1c(Cl)c(OC)cc(OC)c1C2=O [GRISEOFULVIN] | DILI positive (training set)
19 | CC[C@@H]1C(=O)OC[C@@H]1Cc1cncn1C [PILOCARPINE] | DILI negative (training set)
20 | COc1cccc2c1C(=O)c1c(O)c3c(c(O)c1C2=O)C[C@@](O)(C(=O)CO)C[C@@H]3O[C@H]1C[C@H](N)[C@H](O)[C@H](C)O1 [DOXORUBICIN] | DILI negative (test set)
21 | CS(=O)(=O)CCNCc1ccc(-c2ccc3ncnc(Nc4ccc(OCc5cccc(F)c5)c(Cl)c4)c3c2)o1 [LAPATINIB] | DILI positive (test set)
22 | N[C@@H](Cc1cc(I)c(Oc2ccc(O)c(I)c2)c(I)c1)C(=O)O [LIOTHYRONINE] | DILI negative (test set)

Same assay, conditions: Liver

Row | Compound | Hepatotoxicity
23 | CC(C)n1c(/C=C/C(O)CC(O)CC(=O)O)c(-c2ccc(F)cc2)c2ccccc21 (stereo not drawn) [FLUVASTATIN] | DILI negative (training set)
